# Laboratory results published in patent publication US20250313555A1, “2-SUBSTITUTED THIAZOLE AND BENZOTHIAZOLE COMPOSITIONS AND METHODS AS DUX4 INHIBITORS” (ALTAY THERAPEUTICS, INC., priority 2022, published 2025).
# Legend:
# Type in all cases: cell-based
# [1] = Cell cytotoxicity 50 assay (CC50), MB200 cells, cell titer glo; settings: human
# Experimental: Cell Cytotoxicity 50 Assay Protocol (CC50) MB200 cells were grown until 80% confluent in F10 media supplemented with rhFGF basic (10 ng/ml), 15% fetal bovine serum, 1% penicillin streptomycin, 1% amphotericin B, and 1 μM dexamethasone. Adherent MB200 cells growing on 10 cm plate were then trypsinized with 1 ml of trypsin. Once the cells detached from the plate, F10 media (10 mL) was added, and the cells were strained through a 70 μm cell strainer. The cells were counted using a mixture of 10 μL cell suspension with 10 μL of trypan blue. Once the total number of cells were counted, a dilution of 200 k/mL was prepared, and the cells were seeded with 10 k cells/well in a 96-well plate in triplicate, making sure to avoid seeding cells in the edges of the plate to avoid edge effects. Using a multichannel pipet, the 200 k/mL cell dilution (50 μL/well) was added into wells B2-B11, C2-C11, and D2-D11 in triplicate. Into a deep well block (DWB), the media for the appropriate cell line (450 μL/well) was added into wells 1-10. Into DWB well 2, 10 mM of drug solution (13.5 μL) was added, followed by an additional volume of the medium (225 μL). The well was pipetted up/down four times. A portion (225 μL) was transferred to well 3, and this process was repeated up to well 10. Using a multichannel pipet, a smaller portion (50 μL/well) was removed from all wells in the DWB and then dispensed on top of the cells in each corresponding row. After adding the drug, the plate was incubated at 37° C. for 72 h. Using a multi-channel pipet, pre-warmed cell titer glo reagent (Promega) (100 μL) was added into every well. After 5 minutes, the total luminescence was measured with a luminometer. CC50 was determined with GraphPad prism template.
# [2] = Cell cytotoxicity 50 assay (CC50), HEK cells; settings: human
# Experimental: Cell Cytotoxicity 50 Assay Protocol (CC50) Into a deep well block (DWB), the media for the appropriate cell line (450 μL/well) was added into wells 1-10. Into DWB well 2, 10 mM of drug solution (13.5 μL) was added, followed by an additional volume of the medium (225 μL). The well was pipetted up/down four times. A portion (225 μL) was transferred to well 3, and this process was repeated up to well 10. Using a multichannel pipet, a smaller portion (50 μL/well) was removed from all wells in the DWB and then dispensed on top of the cells in each corresponding row. After adding the drug, the plate was incubated at 37° C. for 72 h. Using a multi-channel pipet, pre-warmed cell titer glo reagent (Promega) (100 μL) was added into every well. After 5 minutes, the total luminescence was measured with a luminometer. CC50 was determined with GraphPad prism template.
# MBD3L2 RNA = test: RNA isolation and qPCR to determine MBD3L2 RNA levels in FSHD cells; settings: 48 hrs
# Experimental: Protocol for RNA Isolation and qPCR to Determine MBD3L2 RNA Levels The protocol describes the process of isolating RNA from cultured cells, converting the RNA to complementary DNA (cDNA), and measuring target gene expression using a quantitative polymerase chain reaction (qPCR). The seed FSHD cells were dispensed into a six-well dish. One day after seeding, the DUX4 inhibitor (11 μM or 3.6 μM/well) was added to the cells. After another 48 hrs, the old media was removed from the cells. The cells were washed with 2 mL of warm phosphate buffered saline (PBS). The PBS was aspirated, and the cells were lysed in each well with 350 μL of RLT buffer+3.5 μL of beta-mercaptoethanol (BME). The lysates were added to fresh, RNAse-free, labeled Eppendorf tubes. The cells were then physically disrupted for […] at level 4 of the bead disrupter to ensure the release of the RNA. The RNA was collected according to standard procedures (i.e., Qiagen kit instructions) as discussed below. The RNA concentrations were standardized to […]. In a PCR tube, RNA (2 μg) in a new Eppendorf tube was diluted with RNase-free water to a 9.5 μL final volume of […] RNA. DNase was used to remove any DNA contamination. A DNase Master Mix was prepared from 1.5 μL/reaction DNase solution (1 unit/μL, Promega), 3 μL/reaction 5× RT buffer (i.e., 250 mM Tris-HCl (pH 8.3), 375 mM KCl, 15 mM MgCl2, and 500 μl 0.1 M DTT; Promega MMLV), and 1 μL/reaction RNase inhibitor solution (RNasin, 40 units/μL, Promega). The DNase Master Mix was added to the standardized RNA samples (5.5 μL/sample). The samples were mixed by agitation and briefly spun down by centrifuge. The samples were heated to 37° C. for 60 min, 80° C. for 5 min, and then cooled to 4° C. The samples were stored on ice until the addition of the next reagents. An RT Reaction Master Mix was prepared from 5 μL/reaction 5× RT buffer, 2 μL/reaction dNTP solution (2.5 mM in each nucleotide), 1 μL/reaction RNase inhibitor solution (RNasin, 40 units/μL, Promega), 1.6 μL/reaction M-MLV reverse transcriptase (200 units/μL, Promega), and 13.4 μL/reaction deionized, RNase-free water. The RT Reaction Master Mix was cooled on ice until use. A 50 μM solution of Random Primer 6 random hexanucleotides (2 μL) was added to each sample. The samples were mixed by agitation and briefly spun down by centrifuge. The samples were heated to 70° C. for 5 min and then cooled to 4° C. The RT Reaction Master Mix (23 μL) was added to each sample. The samples were mixed by agitation and briefly spun down by centrifuge. To convert the RNA to cDNA, the samples were heated to 42° C. for 60 min, 95° C. for 5 min, and then cooled to 4° C. The cDNA product mixture was diluted 5:1 with deionized water (40 μL+160 μL). The samples were run in triplicate, with a methyl-CpG-binding protein 3-like 2 (MBD3L2) target primer and a eukaryotic translation elongation factor 1-alpha (EEF1A) control primer. An qPCR Master Mix was prepared for each primer and stored on ice (4° C.) until use. The qPCR Master Mix included 10 μL/reaction SYBR Green Mix (2×) (ThermoFisher), 1 μL/reaction of the primer mix (i.e., the MBD3L2 PCR Primer mix or the EEF1A Primer mix), and 4 μL/reaction deionized, RNase-free water. To set up the qPCR plate, 15 μL of the appropriate qPCR Master Mix was added to the appropriate wells for each target/primer. After all the targets/primers have been added to the wells, 5 μL of the sample was added to the corresponding wells so that each well is 20 μL total. The plate was covered with a clear sheet. An qPCR run was set up (QuantStudio 5) with the following cycle: […]
SMILES,CC50 at 72 h [1] [µM],CC50 at 72 h [2] [µM],qPCR MBD3L2 Inhib at 11 µM (MBD3L2 RNA)
O=C(CCN1C(=O)CCC1=O)Nc1ccc(-c2nc3ccccc3s2)cc1 [Compound 1],1 to 10,> 10,YES
CC(=O)NCCCC(=O)Nc1ccc(-c2nc3cc(F)c(F)cc3s2)cc1 [Compound 84],> 10,> 10,YES
CC(=O)NCCCC(=O)Nc1ccc(-c2nc3ccc(C)cc3s2)cc1 [Compound 15],> 10,> 10,YES
CC(=O)NC1CC(C(=O)Nc2ccc(-c3nc4ccccc4s3)cc2)C1 (stereo not drawn) [Compound 86],> 10,> 10,YES
CC(=O)NC/C=C/C(=O)Nc1ccc(-c2nc3ccccc3s2)cc1 [Compound 77],> 10,> 10,YES
CC(=O)NC1CCC(C(=O)Nc2ccc(-c3nc4ccccc4s3)cc2)C1 (stereo not drawn) [Compound 85],> 10,> 10,YES
CC(=O)NCCCC(=O)Nc1ccc(-c2nc3ccccc3s2)nc1 [Compound 32],> 10,> 10,YES
O=C(Nc1ccc(-c2nc3ccccc3s2)cc1)C1CCC(N2C(=O)CCC2=O)C1 (stereo not drawn) [Compound 94],> 10,> 10,YES
O=C(CC1CCCC1)Nc1ccc(-c2nc3ccccc3s2)cc1 [Compound 21],> 10,> 10,YES
O=C(CCCc1cccnc1)Nc1coc(-c2nc3ccccc3s2)c1 [Compound 62],> 10,> 10,YES
O=C(CCCc1cccnc1)Nc1ccc(-c2nc3cc(F)ccc3s2)cc1 [Compound 155],> 10,1 to 10,YES
CN(C(=O)CCCN1C(=O)CCC1=O)c1ccc(-c2nc3ccccc3s2)cc1 [Compound 141],> 10,1 to 10,YES
O=C(CCCN1C(=O)CCC1=O)NC1CC=C(c2nc3ccccc3s2)CC1 (stereo not drawn) [Compound 46],> 10,> 10,YES
Cc1ccc2nc(-c3ccc(NC(=O)CC4CCCC4)cc3)sc2c1 [Compound 16],> 10,> 10,YES
